Data on 15 compounds can be found in patent US8173689B2 (Novartis AG, priority 2006, dated 2012).

The target of experiment [1] is T1, full-length human CSF-1R receptor (Homo sapiens, UniProt P07333).
T1 construct: transfected with the full-length human CSF-1R receptor cloned in house; expressed in transfected cells; host or cells: HEK293H (Invitrogen Cat. #11631017)
Put plainly: In vitro inhibition of CSF-1R receptor tyrosine phosphorylation in transfected HEK293H cells stimulated with MCSF. Type of experiment: cell-based. The settings on record: HEK293-H, tested at about 1 μM, read-out: pCSF1R percent inhibition. As to the method:
The lysate was then transferred to total CSF-1R antibody coated 96-well plates that had already been blocked with 3% Blocker A from Mesoscale discovery (MSD) for 2 hours and washed afterwards. Lysates were incubated overnight at 4° C. and the plates were then washed 4× with MSD Tris Wash Buffer. […] The plates were read on the Sector 6000 instrument (MSD). Raw data was imported in Abase and EC50s calculated with XL-fit data analysis software.

A further experiment addresses T2, kinase domain of PDGFRβ (Homo sapiens, UniProt P09619).
T2 construct: The kinase domain of PDGFRβ was assayed in 50 mM Hepes; purchased Invitrogen P3082
Put plainly: Inhibition of PDGFRb kinase signaling in an in vitro biochemical assay (alphascreen). The settings on record: tested at about 1 μM, read-out: PDGFRβ percent inhibition. Background: Alpha assays give light when donor and acceptor beads are brought close together.

Experiment [2] deals with MNFS60 (murine AML cells). Put plainly: Cell viability assay in MCSF dependent MNFS60 cells (Cell Titer Glo). The format is cell-based. The settings on record: Mus musculus, tested at about 1 μM, read-out: M-NFS-60 CP percent inhibition. Summed up:
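Viability was read by Cell Titer Glo after 72 hrs at 37° C., 5% CO2, with triplicate conditions. Compounds were titrated 3-fold into MNFS60 cultures whose final MCSF level was 10 ng/ml. EC50 values came from curve fitting.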
(In general: In ATP-based viability assays light output follows the ATP content of the culture.)

Experiment [3] concerns the target T3, cytoplasmic domain of the human CSF-1R (Homo sapiens, UniProt P07333).
T3 construct: Recombinant protein corresponding to the cytoplasmic domain of the human CSF-1R; purchased Invitrogen Corporation, Carlsbad, Calif; PV3249
T3 sequence (P07333 539-972 limits assumed): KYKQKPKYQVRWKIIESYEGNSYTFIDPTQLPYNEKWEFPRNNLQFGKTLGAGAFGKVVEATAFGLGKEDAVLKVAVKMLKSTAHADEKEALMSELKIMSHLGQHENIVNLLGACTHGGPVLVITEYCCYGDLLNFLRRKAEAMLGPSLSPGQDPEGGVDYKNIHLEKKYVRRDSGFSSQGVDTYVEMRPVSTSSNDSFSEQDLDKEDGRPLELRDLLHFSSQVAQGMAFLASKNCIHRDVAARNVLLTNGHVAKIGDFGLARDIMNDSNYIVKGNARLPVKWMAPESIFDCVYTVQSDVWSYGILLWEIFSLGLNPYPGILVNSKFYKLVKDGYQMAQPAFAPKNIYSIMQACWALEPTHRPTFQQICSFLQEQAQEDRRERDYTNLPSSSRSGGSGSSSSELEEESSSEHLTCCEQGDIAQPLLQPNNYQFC
Put plainly: In vitro kinase assay for colony stimulating factor-1 receptor (AlphaScreen). The format is biochemical. The settings on record: tested at about 1 μM, read-out: CSF-1R percent inhibition. Summed up: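 Kinase reaction used 4 nM recombinant cytoplasmic domain at 1 μM ATP in 50 mM Hepes pH 7.5 with 5 mM MgCl2, 10 mM MnCl2, 0.1% BSA, 1.0 mM DTT and 0.01% Tween 80. Compounds were serially diluted 3-fold from 25 μM. Phosphopeptide was detected by AlphaScreen, PT66 anti-phosphotyrosine acceptor plus streptavidin donor beads, read after overnight incubation.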

The next experiment addresses T4, kinase domain of cKIT (Homo sapiens, UniProt P10721).
T4 construct: The kinase domain of cKIT was assayed in 50 mM Hepes; purchased Upstate 14-559
In words: Inhibition of cKIT kinase signaling in an in vitro biochemical assay (alphascreen). The settings on record: tested at about 1 μM, read-out: cKit percent inhibition.

Where two headings read alike, the source gives them in different places.

T1 sequence (P07333 20-972): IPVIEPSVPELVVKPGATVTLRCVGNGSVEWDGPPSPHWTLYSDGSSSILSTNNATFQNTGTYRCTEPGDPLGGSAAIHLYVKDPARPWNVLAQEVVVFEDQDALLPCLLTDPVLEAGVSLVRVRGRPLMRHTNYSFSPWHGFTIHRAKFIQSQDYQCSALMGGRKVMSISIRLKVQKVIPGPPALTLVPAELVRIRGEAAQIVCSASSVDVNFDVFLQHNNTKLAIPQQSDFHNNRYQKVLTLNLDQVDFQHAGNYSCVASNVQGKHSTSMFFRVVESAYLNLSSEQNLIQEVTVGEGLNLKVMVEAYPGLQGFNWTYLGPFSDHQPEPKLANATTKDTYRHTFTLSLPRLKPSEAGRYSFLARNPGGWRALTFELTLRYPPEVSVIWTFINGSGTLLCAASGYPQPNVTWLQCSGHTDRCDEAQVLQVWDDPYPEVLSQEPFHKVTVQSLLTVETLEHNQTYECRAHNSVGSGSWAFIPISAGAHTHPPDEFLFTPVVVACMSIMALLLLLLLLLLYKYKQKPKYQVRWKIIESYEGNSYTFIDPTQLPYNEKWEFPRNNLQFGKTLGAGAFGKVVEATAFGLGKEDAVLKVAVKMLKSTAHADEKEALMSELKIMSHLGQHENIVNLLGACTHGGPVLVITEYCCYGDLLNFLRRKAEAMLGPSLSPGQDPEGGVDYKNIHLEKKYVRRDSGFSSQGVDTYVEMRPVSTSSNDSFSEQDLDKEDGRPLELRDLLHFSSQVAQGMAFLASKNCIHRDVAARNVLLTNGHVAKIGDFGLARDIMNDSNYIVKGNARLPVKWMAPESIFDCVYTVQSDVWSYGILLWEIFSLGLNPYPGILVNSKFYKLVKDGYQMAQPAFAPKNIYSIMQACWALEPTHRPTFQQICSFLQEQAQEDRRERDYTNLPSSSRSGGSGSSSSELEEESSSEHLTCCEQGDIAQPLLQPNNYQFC
T4 sequence (P10721 589-937 limits assumed): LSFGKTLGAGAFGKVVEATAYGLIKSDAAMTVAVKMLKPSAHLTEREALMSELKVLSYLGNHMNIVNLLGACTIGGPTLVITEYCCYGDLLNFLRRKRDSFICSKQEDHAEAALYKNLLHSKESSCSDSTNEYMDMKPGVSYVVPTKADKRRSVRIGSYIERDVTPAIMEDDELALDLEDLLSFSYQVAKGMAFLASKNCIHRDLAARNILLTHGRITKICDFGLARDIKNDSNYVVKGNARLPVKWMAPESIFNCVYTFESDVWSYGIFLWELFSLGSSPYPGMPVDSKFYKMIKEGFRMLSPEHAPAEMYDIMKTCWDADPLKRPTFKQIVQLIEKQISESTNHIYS
T2 sequence (P09619 600-962 limits assumed): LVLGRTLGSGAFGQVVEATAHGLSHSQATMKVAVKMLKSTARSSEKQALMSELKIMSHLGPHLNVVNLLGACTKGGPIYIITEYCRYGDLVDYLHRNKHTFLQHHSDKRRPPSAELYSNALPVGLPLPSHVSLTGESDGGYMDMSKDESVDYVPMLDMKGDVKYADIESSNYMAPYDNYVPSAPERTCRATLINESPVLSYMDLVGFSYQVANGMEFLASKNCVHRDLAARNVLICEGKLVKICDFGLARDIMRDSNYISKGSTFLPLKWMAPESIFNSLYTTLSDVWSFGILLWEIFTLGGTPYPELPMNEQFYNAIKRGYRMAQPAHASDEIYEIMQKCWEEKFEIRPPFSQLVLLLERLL

For orientation: inhibition means the drop in the measured response relative to a control, in per cent. On to `O[C@@H]1CCCC[C@H]1Nc1nc2ccc(Oc3ccnc(-c4ccc(N5CCOCC5)nc4)c3)cc2s1` [Cmpd 165, (1R,2R)-2-(6-(6'-morpholino-2,3'-bipyridin-4-yloxy)benzo[d]thiazol-2-ylamino)cyclohexanol], for which the inhibition at 1 µM in experiment [1] (compounds of Table 3) worked out at 98%; at kinase domain of PDGFRβ (compounds of Table 3), 83%; in experiment [2] (compounds of Table 3), 100%; in experiment [3] (compounds of Table 3), 100%; at kinase domain of cKIT (compounds of Table 3), 83%.
With `CNC(=O)c1cc(Oc2ccc3nc(Nc4ccccc4CCN4CCCCC4)oc3c2)ccn1` [Compound 44, 4-{2-[2-(2-Piperidin-1-yl-ethyl)-phenylamino]-benzooxazol-6-yloxy}-pyridine-2-carboxylic acid methylamide], the inhibition at 1 µM in experiment [1] (compounds of Table 3) is 99%; in experiment [1] (compounds of Table 4) it was 53%; on kinase domain of PDGFRβ (compounds of Table 3), 98%; at kinase domain of PDGFRβ (compounds of Table 4), 24%; at kinase domain of PDGFRβ, 15%; in experiment [2] (compounds of Table 3), 100%. Further, the inhibition at 1 µM worked out at 94% in experiment [2] (compounds of Table 4); 100% in experiment [3] (compounds of Table 3); 100% in experiment [3] (compounds of Table 4); 37% in experiment [3]; 87% on kinase domain of cKIT (compounds of Table 3); 45% on kinase domain of cKIT (compounds of Table 4).
For `CNC(=O)c1cc(Oc2ccc3nc(N[C@H]4C[C@H]4c4ccccc4)sc3c2)ccn1` [Example 318, N-methyl-4-(2-((1S,2S)-2-phenylcyclopropylamino)benzo[d]thiazol-6-yloxy)picolinamide], the inhibition at 1 µM in experiment [1] (HEK293H cells) was determined as 78%; at kinase domain of PDGFRβ, 13%; in experiment [2] (MCSF dependent MNFS60 cells), 24%; in experiment [3] it was 100%; at kinase domain of cKIT, 47%.
The corresponding values for `CC(C)CCNc1nc2ccc(Oc3ccnc(-c4cnn(C)c4)c3)cc2s1` [Example 365, N-isopentyl-6-(2-(1-methyl-1H-pyrazol-4-yl)pyridin-4-yloxy)benzo[d]thiazol-2-amine] are 97%, 79%, 100%, 100% and 100%.
`CCc1nc(-c2cc(Oc3ccc4nc(N[C@@H]5CCCC[C@H]5O)sc4c3)ccn2)[nH]c1CC` [Example 266, (1R,2R)-2-(6-(2-(4,5-diethyl-1H-imidazol-2-yl)pyridin-4-yloxy)benzo[d]thiazol-2-ylamino)cyclohexanol]: the inhibition at 1 µM in experiment [1] (compounds of Table 3) worked out at 94%; at kinase domain of PDGFRβ (compounds of Table 3), 21%; in experiment [2] (compounds of Table 3) it was 100%; in experiment [3] (compounds of Table 3), 100%; at kinase domain of cKIT (compounds of Table 3), 18%.
For `CNC(=O)c1cc(Oc2ccc3nc(N[C@H](CO)C(C)C)sc3c2)ccn1` [Compound 102], the inhibition at 1 µM in experiment [1] (compounds of Table 3) came out at 88%; at kinase domain of PDGFRβ (compounds of Table 3), 9%; in experiment [2] (compounds of Table 3), 75%; in experiment [3] (compounds of Table 3), 100%; at kinase domain of cKIT (compounds of Table 3), 0%.
Regarding `CNC(=O)c1cc(Oc2ccc3nc(NCc4c(F)cccc4F)sc3c2)ccn1` [Compound 149, 4-[2-(2,6-Difluoro-benzylamino)-benzothiazol-6-yloxy]-pyridine-2-carboxylic acid methylamide], the inhibition at 1 µM in experiment [1] (HEK293H cells) stood at 92%; at kinase domain of PDGFRβ, 0%; in experiment [2] (MNFS60 cells) it was 67%; in experiment [3], 99%; on kinase domain of cKIT it was 4%.
On the same counts, the results for `CNC(=O)c1cc(Oc2ccc3nc(N[C@H]4CCCC[C@@H]4OCc4ccccc4)sc3c2)ccn1` [Compound 156, 4-[2-((1S,2S)-2-Benzyloxy-cyclohexylamino)-benzothiazol-6-yloxy]-pyridine-2-carboxylic acid methylamide] are 16%, 41%, 63%, 100% and 27%.
On the same counts, the results for `CNC(=O)c1cc(Oc2ccc3nc(NC4CCCCC4)sc3c2)ccn1` [Compound 135, 4-(2-Cyclohexylamino-benzothiazol-6-yloxy)-pyridine-2-carboxylic acid methylamide] are 91%, 20%, 96%, 100% and 68%.
Take `CNC(=O)c1cc(Oc2ccc3nc(N[C@H]4CCCN(S(C)(=O)=O)C4)sc3c2)ccn1` [Example 331, (S)-N-methyl-4-(2-(1-(methylsulfonyl)piperidin-3-ylamino)benzo[d]thiazol-6-yloxy)picolinamide]: the inhibition at 1 µM is 79% in experiment [1] (HEK293H cells); 10% on kinase domain of PDGFRβ; 68% in experiment [2] (MCSF dependent MNFS60 cells); 100% in experiment [3]; 41% at kinase domain of cKIT.
On the same counts, the results for `Cn1cc(-c2cc(Oc3ccc4nc(N[C@H]5CCCc6ccccc65)sc4c3)ccn2)cn1` [Example 362, (S)-6-(2-(1-methyl-1H-pyrazol-4-yl)pyridin-4-yloxy)-N-(1,2,3,4-tetrahydronaphthalen-1-yl)benzo[d]thiazol-2-amine] are 100%, 92%, 100%, 100% and 99%.
On to `CNC(=O)c1cc(Oc2ccc3nc(NC(C)c4cccc5c4OCCO5)oc3c2)ccn1` (stereo not shown) [Compound 125, 4-{2-[1-(2,3-Dihydro-benzo-[1,4]dioxin-5-yl)-ethylamino]-benzooxazol-6-yloxy}-pyridine-2-carboxylic acid methylamide], for which the inhibition at 1 µM in experiment [1] (HEK293H cells) worked out at 45%; on kinase domain of PDGFRβ it was 0%; in experiment [2] (MNFS60 cells), 44%; in experiment [3], 100%; on kinase domain of cKIT, 35%.
On the same counts, the results for `CNC(=O)c1cc(Oc2ccc3nc(NCc4cccc(F)c4F)sc3c2)ccn1` [Compound 147, 4-[2-(2,3-Difluoro-benzylamino)-benzothiazol-6-yloxy]-pyridine-2-carboxylic acid methylamide] are 97%, 0%, 90%, 98% and 90%.
For the compound `Cn1cc(-c2cc(Oc3ccc4nc(N[C@H]5CCCN(S(=O)(=O)C6CC6)C5)sc4c3)ccn2)cn1` [Example 373, (S)-N-(1-(cyclopropylsulfonyl)piperidin-3-yl)-6-(2-(1-methyl-1H-pyrazol-4-yl)pyridin-4-yloxy)benzo[d]thiazol-2-amine], the inhibition at 1 µM came out at 91% in experiment [1] (HEK293H cells); 0% at kinase domain of PDGFRβ; 100% in experiment [2] (MCSF dependent MNFS60 cells); 101% in experiment [3]; 51% on kinase domain of cKIT.
Regarding `CNC(=O)c1cc(Oc2ccc3nc(NCc4ccccc4N4CCOCC4)sc3c2)ccn1` [Compound 142, 4-[2-(2-Morpholin-4-yl-benzylamino)-benzothiazol-6-yloxy]-2-pyridine-2-carboxylic acid methylamide], the inhibition at 1 µM in experiment [1] (HEK293H cells) came out at 88%; at kinase domain of PDGFRβ, 97%; in experiment [2] (MNFS60 cells) it was 100%; in experiment [3], 99%; at kinase domain of cKIT it was 98%.
